# From article PMC6421115 (The Journal of eukaryotic microbiology, 2018)
# Counter-ions that a name gives are not always drawn. Like-named read-outs stand apart in the source and are kept apart here. Marks after values point to notes of the source that are not given here.
# B1: CpHK (Cryptosporidium parvum Iowa II) (protein)
# chain: MEEENQAKRLFDLYEEYFFLSNLKLLELVDDFHKSLEDGLENHANRLKIDKYHSNYKPFKMLDSCVDRLPTGKEKGVYYAIDMGGTNLRCVRVNLLGNGQSETKFKKVKLSEMKVSSTGKVVNSNKISKVDQEVNIFDKTVSSETMFNSIAVFFNEFLDECGDLNDLTNDNNVGNLPLEVGFTFSFPIVQSKIASAKLVIWTKEIETGRLTDDPVEGKDIGDLLNLAFKRNGVPAQCKCVLNDTVGTLISAMYDLNINNYCDNNHSLKVNFPNNISENQPLIGIVVGTGVNACYLEPNSSNFGYKGVIINTECGDFYSTKLPITDCDYSMDWFSDNRGEQIFEKMISGTYLGEISRLLIINFLKNKTPEIFFQKNSLKTEHIAKIISHFNDNHQKYNQNHDLKSIENYLKETFSSNLDHNSTYIIAKISQMVLMRAASLVSAIIAAFFKRFNKPRNQITIAIDGSVWTKIPKFQKYVKDSLSSLIQESGYLGSIHFYESDDGSGRGAAILASTTVNTH
# B2: HsHK1 (Homo sapiens) (protein)
# chain: MIAAQLLAYYFTELKDDQVKKIDKYLYAMRLSDETLIDIMTRFRKEMKNGLSRDFNPTATVKMLPTFVRSIPDGSEKGDFIALDLGGSSFRILRVQVNHEKNQNVHMESEVYDTPENIVHGSGSQLFDHVAECLGDFMEKRKIKDKKLPVGFTFSFPCQQSKIDEAILITWTKRFKASGVEGADVVKLLNKAIKKRGDYDANIVAVVNDTVGTMMTCGYDDQHCEVGLIIGTGTNACYMEELRHIDLVEGDEGRMCINTEWGAFGDDGSLEDIRTEFDREIDRGSLNPGKQLFEKMVSGMYLGELVRLILVKMAKEGLLFEGRITPELLTRGKFNTSDVSAIEKNKEGLHNAKEILTRLGVEPSDDDCVSVQHVCTIVSFRSANLVAATLGAILNRLRDNKGTPRLRTTVGVDGSLYKTHPQYSRRFHKTLRRLVPDSDVRFLLSESGSGKGAAMVTAVAYRLAEQHRQIEETLAHFHLTKDMLLEVKKRMRAEMELGLRKQTHNNAVVKMLPSFVRRTPDGTENGDFLALDLGGTNFRVLLVKIRSGKKRTVEMHNKIYAIPIEIMQGTGEELFDHIVSCISDFLDYMGIKGPRMPLGFTFSFPCQQTSLDAGILITWTKGFKATDCVGHDVVTLLRDAIKRREEFDLDVVAVVNDTVGTMMTCAYEEPTCEVGLIVGTGSNACYMEEMKNVEMVEGDQGQMCINMEWGAFGDNGCLDDIRTHYDRLVDEYSLNAGKQRYEKMISGMYLGEIVRNILIDFTKKGFLFRGQISETLKTRGIFETKFLSQIESDRLALLQVRAILQQLGLNSTCDDSILVKTVCGVVSRRAAQLCGAGMAAVVDKIRENRGLDRLNVTVGVDGTLYKLHPHFSRIMHQTVKELSPKCNVSFLLSEDGSGKGAALITAVGVRLRTEASS
# How the values were obtained:
# C. parvum [1] = assay: Efficacy against C. parvum growth in vitro in HCT-8 cells, qRT-PCR assay; details: for Safety Interval (TC50/EC50): HCT-8 TC50 / C. parvum EC50
# HCT-8 cells [2] = assay: Cytotoxicity on host cells, MTT assay
# [3] = molecular target: T1, C. parvum hexokinase (CpHK) (Cryptosporidium parvum, UniProt Q5CWT5); assay: biochemical; type: biochemical; details: for Selectivity on enzyme: HsHK1 IC50 versus CpHK IC50; for Mode of inhibition of CpHK: inhibitory kinetics
# CpHK = molecular target: T2, CpHK (Cryptosporidium parvum, UniProt Q5CWT5); assay: CpHK enzyme parameters towards substrates; type: biochemical
# T2 sequence (Q5CWT5 1-518): B1 chain
# HsHK1 = molecular target: T3, HsHK1 (Homo sapiens, UniProt P19367); assay: HsHK1 enzyme parameters towards substrates; type: biochemical
# T3 sequence (P19367 1-917): B2 chain
# [4] = molecular target: T1, C. parvum hexokinase (CpHK); details: ref Yu et al. 2014, cited from earlier work
# [5] = molecular target: T4, human (Homo sapiens) HK-I (HsHK1) (Homo sapiens, UniProt P19367); assay: HsHK1 inhibition, HK/G6PDH-coupled assay; type: biochemical
# T4 sequence (P19367 1-917): B2 chain
# HCT-8 cells [6] = details: host cells; ref Eltahan et al, 2018; cited from earlier work
# C. parvum [7] = details: read-out: Efficacy on C. parvum (EC50); in vitro; ref Eltahan et al, 2018; cited from earlier work
# [8] = substrate: OC[C@H]1OC(O)[C@H](O)[C@@H](O)[C@@H]1O; assay: CpHK enzyme parameters towards substrates; type: biochemical, Cryptosporidium parvum; details: other: compound as substrate; pH 7.5
# [9] = substrate: O=CC[C@@H](O)[C@H](O)[C@H](O)CO; assay: CpHK enzyme parameters towards substrates; type: biochemical, Cryptosporidium parvum; details: other: compound as substrate; pH 7.5
# [10] = substrate: OC[C@H]1OC(O)[C@H](O)[C@@H](O)[C@@H]1O; assay: HsHK1 enzyme parameters towards substrates; type: biochemical, Homo sapiens; details: other: compound as substrate, 37 °C, pH 7.5
# [11] = substrate: O=CC[C@@H](O)[C@H](O)[C@H](O)CO; assay: purified protein, by the assay type; details: other: compound as substrate, 37 °C, pH 7.5
# [12] = Cryptosporidium parvum, HCT-8, 44 h, read-out: In vitro efficacy (EC50)
# [13] = Cryptosporidium parvum, HCT-8, read-out: Efficacy on C. parvum (EC50)
molecule,measurement,setting,value
"O=CC[C@@H](O)[C@H](O)[C@H](O)COP(=O)(O)O [2DG6P, 2-deoxy-D-glucose-6-phosphate]",EC50,C. parvum [1]; [12],18000 µM
same,Safety Interval (TC50/EC50),C. parvum [1],>4.0
same,Cytotoxicity (TC50),HCT-8 cells [2]; 44 h treatment,>72000 µM
"O=CC[C@@H](O)[C@H](O)[C@H](O)CO [2DG, 2-deoxy-D-glucose]",EC50,C. parvum [1]; [12],540 µM
same,Safety Interval (TC50/EC50),C. parvum [1],66.7
same,IC50,[3],5750 µM
same,Ratio (2DG/glucose) of CpHK Vmax,CpHK,0.72
same,Ratio (2DG/glucose) of CpHK Km,CpHK; fold lower affinity than for glucose,4.43
same,Ratio (2DG/glucose) of HsHK1 Km,HsHK1,9.81
same,Ratio (2DG/glucose) of HsHK1 Vmax,HsHK1,1.28
same,IC50,[4]; read-out: CpHK IC50,5750 µM
same,Ki,[4]; read-out: CpHK Ki,340 µM
same,Mode of inhibition of CpHK,[4],competitive inhibitor
same,Cytotoxicity (TC50),HCT-8 cells [2]; 44 h treatment,36000 µM
same,IC50,[5],10100 µM
"CCCCC(CC)CNC(=N)NC(=N)NCCCCCCNC(=N)NC(=N)NCC(CC)CCCC (stereo not shown) [Alexidine•2HCl, alexidine dihydrochloride]",EC50,C. parvum [1]; [13],8.1 µM
same,IC50,[3],22.1 µM
same,Selectivity on enzyme,[3],1.03
same,Mode of inhibition of CpHK,[3],noncompetitive inhibitor
same,Cytotoxicity (TC50),HCT-8 cells [2]; host cells,32.6 µM
same,IC50,[5],22.7 µM
"O=c1c2ccccc2[se]n1-c1ccccc1 [Ebselen, 2-phenyl-1,2-benzisoselenazol-3(2H)-one]",IC50,[3],0.241 µM
same,Selectivity on enzyme,[3],1.10
same,Mode of inhibition of CpHK,[3],noncompetitive inhibitor
same,Reversibility of CpHK inhibition,"[3]; not reversed by up to 50-fold dilution, from 100 to 2 μM",irreversible inhibitor
same,Cytotoxicity (TC50),HCT-8 cells [6],700 ^* μM
same,EC50,C. parvum [7],165 µM
same,IC50,[5],0.265 µM
"OC[C@H]1OC(O)[C@H](F)[C@@H](O)[C@@H]1O (stereo partly shown) [FDG, fluorodeoxyglucose]",Safety Interval (TC50/EC50),C. parvum [1],> 240
same,Safety Interval (TC50/EC50),C. parvum [1]; listed as 2FDG,>240
same,EC50,"C. parvum [1]; read-out: In vitro efficacy (EC50), 44 h infection assay",300 µM
same,IC50,"[3]; read-out: Effect on CpHK, IC50",3700 µM
same,IC50,"[5]; read-out: Effect on HsHK1, IC50, 37 °C",15200 µM
Oc1c(Cl)cc(Cl)c(Cl)c1Cc1c(O)c(Cl)cc(Cl)c1Cl [Hexachlorophene],EC50,C. parvum [1]; [13],0.53 µM
same,IC50,[3],8.8 µM
same,Selectivity on enzyme,[3],0.74
same,Mode of inhibition of CpHK,[3],mixed model of inhibition
same,Cytotoxicity (TC50),HCT-8 cells [2]; host cells,100 µM
same,IC50,[5],6.5 µM
C[CH2][Hg][S]c1ccccc1C(=O)[O-].[Na+] [Thimerosal],EC50,"C. parvum [1]; read-out: Efficacy on C. parvum (EC50), in vitro",1.77 µM
same,Mode of inhibition of CpHK,[3],mixed model of inhibition
same,IC50,"[3]; read-out: Inhibition on CpHK (IC50), 37 °C, 1% DMSO",2.3 µM
same,Cytotoxicity (TC50),HCT-8 cells [2]; host cells,18.5 µM
same,IC50,"[5]; read-out: Inhibition on HsHK1 (IC50), 37 °C, 1% DMSO",0.35 µM
B1,Km,[8],46 µM
same,Vmax,[8],155 µmol/min
same,Km,[9],204 µM
same,Vmax,[9],112 µmol/min
B2,Km,[10],27 µM
same,Vmax,[10],53.3 µmol/min
same,Km,[11],265 µM
same,Vmax,[11],68.4 µmol/min
